We go through 3 compounds from BindingDB's records for doi:10.1021/jm9604890 (University of Groningen, 1997).

Structures are written as SMILES.

This assay can be described thus: Compound was tested for intrinsic efficacy against human 5-hydroxytryptamine 1D receptor alpha measured as the reduction of forskolin-stimulated cAMP.
Regarding `NCCc1c[nH]c2ccc(OS(=O)(=O)C(F)(F)F)cc12` [Trifluoro-methanesulfonic acid 3-(2-amino-ethyl)-1H-indol-5-yl ester], the Ki (commonly a dissociation constant, usually derived from enzyme kinetics or from competition with a known ligand) is 19 nM. This lies in the double-digit nanomolar range.
`CN(C)CCc1c[nH]c2ccc(OS(=O)(=O)C(F)(F)F)cc12` [Trifluoro-methanesulfonic acid 3-(2-dimethylamino-ethyl)-1H-indol-5-yl ester] gave a Ki of 30 nM.
Regarding `CCCN(CCC)CCc1c[nH]c2ccc(OS(=O)(=O)C(F)(F)F)cc12` [Trifluoro-methanesulfonic acid 3-(2-dipropylamino-ethyl)-1H-indol-5-yl ester], the affinity, expressed as Ki, was 36 nM. This Ki and that of the compound before are within 1.5-fold of each other.
